Data reported in the supplement of paper PMC10307832.

How the values were obtained:
Experiment in all cases: relative viability (nuclei count vs DMSO), 5 days (fraction); higher = more cells survive
GW-2580 + Navitoclax = compound: COC1=CC=C(C=C1)COC2=C(C=C(C=C2)CC3=CN=C(N=C3N)N)OC [GW-2580] + CC1(C)CCC(c2ccc(Cl)cc2)=C(CN2CCN(c3ccc(C(=O)NS(=O)(=O)c4ccc(N[C@H](CCN5CCOCC5)CSc5ccccc5)c(S(=O)(=O)C(F)(F)F)c4)cc3)CC2)C1 [Navitoclax] (partner 0.5 µM)
How it was run: (§1)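 Values are medians from duplicate plates. Each reflects relative viability, defined as the nuclei count of treated wells over that of vehicle wells. Lung cancer cell lines in 1536-well plates were pin-tool dosed one day after seeding with one drug alone or with a fixed anchor-drug dose plus five library-drug doses (not always all listed) in √10 steps, then fixed, stained and imaged at 4× after 5 days.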

GW-2580 + Foretinib = compound: COC1=CC=C(C=C1)COC2=C(C=C(C=C2)CC3=CN=C(N=C3N)N)OC [GW-2580] + COc1cc2c(Oc3ccc(NC(=O)C4(C(=O)Nc5ccc(F)cc5)CC4)cc3F)ccnc2cc1OCCCN1CCOCC1 [Foretinib] (partner 0.25 µM)
How it was run: as §1

GW-2580 + OSI-027 = compound: COC1=CC=C(C=C1)COC2=C(C=C(C=C2)CC3=CN=C(N=C3N)N)OC [GW-2580] + COc1cccc2cc(-c3nc([C@H]4CC[C@H](C(=O)O)CC4)n4ncnc(N)c34)[nH]c12 [OSI-027] (partner 0.5 µM)
How it was run: as §1

GW-2580 + Tozasertib = compound: COC1=CC=C(C=C1)COC2=C(C=C(C=C2)CC3=CN=C(N=C3N)N)OC [GW-2580] + Cc1cc(Nc2cc(N3CCN(C)CC3)nc(Sc3ccc(NC(=O)C4CC4)cc3)n2)n[nH]1 [Tozasertib] (partner 0.1 µM)
How it was run: as §1

Fedratinib + Navitoclax = compound: Cc1cnc(Nc2ccc(OCCN3CCCC3)cc2)nc1Nc1cccc(S(=O)(=O)NC(C)(C)C)c1 [Fedratinib] + CC1(C)CCC(c2ccc(Cl)cc2)=C(CN2CCN(c3ccc(C(=O)NS(=O)(=O)c4ccc(N[C@H](CCN5CCOCC5)CSc5ccccc5)c(S(=O)(=O)C(F)(F)F)c4)cc3)CC2)C1 [Navitoclax] (partner 0.5 µM)
How it was run: as §1

Cell Line: UMC-11
- relative viability (GW-2580 + Navitoclax; first compound 0.08 µM): 0.309
- relative viability (GW-2580 + Navitoclax; first compound 0.8 µM): 0.342
- relative viability (GW-2580 + Navitoclax; first compound 2.53 µM): 0.291
- relative viability (GW-2580 + Navitoclax; first compound 8 µM): 0.324
- relative viability (GW-2580 + Foretinib; first compound 0.08 µM): 1.06
- relative viability (GW-2580 + Foretinib; first compound 0.8 µM): 1.04
- relative viability (GW-2580 + Foretinib; first compound 2.53 µM): 1.1
- relative viability (GW-2580 + Foretinib; first compound 8 µM): 1.23
- relative viability (GW-2580 + OSI-027; first compound 0.08 µM): 0.531
- relative viability (GW-2580 + OSI-027; first compound 0.8 µM): 0.508
- relative viability (GW-2580 + OSI-027; first compound 2.53 µM): 0.515
- relative viability (GW-2580 + OSI-027; first compound 8 µM): 0.439
- relative viability (GW-2580 + Tozasertib; first compound 0.08 µM): 0.206
- relative viability (GW-2580 + Tozasertib; first compound 0.8 µM): 0.284
- relative viability (GW-2580 + Tozasertib; first compound 2.53 µM): 0.198
- relative viability (GW-2580 + Tozasertib; first compound 8 µM): 0.197
- relative viability (Fedratinib + Navitoclax; first compound 0.1 µM): 0.31
- relative viability (Fedratinib + Navitoclax; first compound 0.3162 µM): 0.275
- relative viability (Fedratinib + Navitoclax; first compound 1 µM): 0.228
